According to patent US6251885A, “Cytotrienins, process for preparing the same and anti-tumor agent” (The Institute of Physical and Chemical Research, priority 1996, dated 2001):
≈ marks a conversion by molar mass, not a printed value.

What was measured:
[1] = test system: v-src^ts -NRK cell; test: Activity to revert v-src^ts-NRK cell to normal morphology; type: cell-based, rat; details: 32° C., 18 hours; also: key: +: weakly induce normal morphology; + +: induce normal morphology; + + +: highly induce normal morphology
Method: Activity of cytotrienins I, II, III and IV to revert v-src^ts -NRK cell (rat renal cell infected with temperature-sensitive Rous sarcoma virus) to normal morphology.
Many oncogenes encode tyrosine kinase. Among them, v-src is believed to encode non-receptor type tyrosine kinase to induce the cell to transformed morphology.
V-src^ts -NRK cell is typically cultured on Eagle's MEM medium containing 10% of bovine serum at 32° C. in a culture chamber which is saturated with 5% of carbon dioxide and steam. At the permissive temperature (32° C.), a series of diluted cytotrienin I, II, III and IV were added. After 18 hours, inducibility to normal morphology was analyzed.

[2] = test system: v-src^ts -NRK cell; test: Inhibition of v-src^ts-NRK cell cycle (progress of S phase), flow cytometry; also: key: +: weakly inhibits the progress of S; + +: inhibits the progress of S phase; + + +: strongly inhibits the progress of S phase; type: cell-based, rat; details: downshift 39° C. to 32° C., 18 hours
Method: Inhibitory activity for cell cycle of cytotrienins I, II, III and IV.
Generally cell divides and proliferates in accordance with a cell cycle including a series of phases such as M phase, G1 phase, S phase and G2 phase. If something happens in the control mechanism of cell cycle, homeostasis breaks and possibility of suffering from cancer or immune disease would increase.
When v--src^ts -NRK cell is cultured at non-permissive temperature (39° C.), the cell cycle stops at G0/G1 phase and if the temperature is downshifted to permissive temperature (32° C.), the cell advances to S phase and then repeats the proliferation. A series of diluted cytotrienin I, II, III and IV were added simlutaneously with the downshift and, after 18 hours, the advancement of cell cycle to S phase was analyzed by flow cytometry.

[3] = test system: K-562; test: Inhibition of proliferation of cancer cells (MTT), K-562; type: cell-based; details: 17 hours; for Inhibitory effect on proliferation, IC50 value (concentration to inhibit 50% of proliferation): K-562 (human chronic myelogenic leukemia cells)
Method: (§1) Inhibitory activity for proliferation of cancer cells of cytotrienins I, II, III and IV.
(§2) Human leukocyte cells K562 and HL-60 were incubated on PRM 1640 medium (comprising 10% of bovine serum) in a culture chamber saturated with 5% carbon dioxide and steam. To the medium was added a series of diluted cytotrienin I, II, III and IV. After 17 hours, MTT reagent was added and growth was measured.
K562: Human chronic myelogenic leukemia cells

[4] = test system: HL-60; test: Inhibition of proliferation of cancer cells (MTT), HL-60; type: cell-based; details: HL-60 (human acute promyelogenic leukemia cells), 17 hours
Method: as §1, §2
HL-60: Human acute promyelogenic leukemia cells

[5] = test system: Staphylococcus aureus; test: Antimicrobial activity, agar dilution method; type: cell-based; details: bouillon medium, 37° C., 1 day
[6] = test system: Escherichia coli BE1186; test: Antimicrobial activity, agar dilution method; type: cell-based; details: bouillon medium, 37° C., 1 day
Method: Antimicrobial activity of cytotrienins I, II, III and IV
Cytotrienins I, II, III and IV were assayed by the agar dilution method in bouillon medium (examined microorganism; bacteria, 37° C., 1 day) and Sabouraud's medium (examined microorganism: fungus, 28° C., 2 days).

[7] = test system: Pseudomonas aeruginosa; test: Antimicrobial activity, agar dilution method; type: cell-based; details: bouillon medium, 37° C., 1 day
[8] = test system: Pyricularia oryzae; test: microbe, parasite or virus in culture; type: cell-based; details: for minimum inhibitory concentration (MIC): Sabouraud's medium, 28° C., 2 days
[9] = test system: Candida albicans; test: Antimicrobial activity, agar dilution method; type: cell-based; details: Sabouraud's medium, 28° C., 2 days
[10] = test system: Chlorella vulgaris; test: Antimicrobial activity, agar dilution method; type: cell-based
[11] = 24 h, read-out: minimum inhibitory concentration (MIC)
[12] = 48 h, read-out: minimum inhibitory concentration (MIC)

SMILES | reversion activity to induce v-src^ts -NRK cell to normal morphology ([1]; 0.1 μg/ml) | reversion activity to induce v-src^ts -NRK cell to normal morphology ([1]; 0.3 μg/ml) | reversion activity to induce v-src^ts -NRK cell to normal morphology ([1]; 1 μg/ml) | reversion activity to induce v-src^ts -NRK cell to normal morphology ([1]; 3 μg/ml) | reversion activity to induce v-src^ts -NRK cell to normal morphology ([1]; 10 μg/ml) | Inhibition effect on v-src^ts -NRK cell cycle ([2]; 0.03 μg/ml) | Inhibition effect on v-src^ts -NRK cell cycle ([2]; 0.1 μg/ml) | Inhibition effect on v-src^ts -NRK cell cycle ([2]; 0.3 μg/ml) | Inhibition effect on v-src^ts -NRK cell cycle ([2]; 1 μg/ml) | Inhibition effect on v-src^ts -NRK cell cycle ([2]; 3 μg/ml) | Inhibitory effect on proliferation, IC50 value (concentration to inhibit 50% of proliferation) [3] | Inhibitory effect on proliferation, IC50 value (concentration to inhibit 50% of proliferation) [4] | minimum inhibitory concentration (MIC) [5] | minimum inhibitory concentration (MIC) [6] | minimum inhibitory concentration (MIC) [7] | minimum inhibitory concentration (MIC) [8] | minimum inhibitory concentration (MIC) [9] | minimum inhibitory concentration (MIC) [10] | further results
COC1C=CC=CC=CCC(OC(=O)C2(NC(=O)C3=CCCCC3)CC2)C(C)C(O)C(C)=CCCc2cc(O)cc(c2O)NC(=O)C1 (centres unmarked) [Cytotrienin I, cytotrienin I] | + | + + | + + + | + + + | + + + | + | + + | + + + | + + + | + + + | – | – | – | – | – | – | – | – | IC50 ([3]; K562, K-562 (human chronic myelogenic leukemia cells), read-out: Inhibitory effect on proliferation, IC50 value (concentration to inhibit 50% of proliferation)): 0.02 µg/mL (≈ 0.0308 µM); IC50 ([4]; read-out: Inhibitory effect on proliferation, IC50 value (concentration to inhibit 50% of proliferation)): 5 ng/mL (≈ 0.00771 µM); MIC [5, 11]: > 100 µg/mL; MIC [6, 11]: > 100 µg/mL; MIC [7, 11]: > 100 µg/mL; MIC [8, 12]: 12.5 µg/mL (≈ 19.3 µM); MIC [9, 12]: > 100 µg/mL; MIC ([10]; read-out: minimum inhibitory concentration (MIC)): > 100 µg/mL
COC1C=CC=CC=CCC(OC(=O)C2(NC(=O)C3=CCCCC3)CC2)C(C)C(O)C(C)=CCCC2=CC(=O)C=C(NC(=O)C1)C2=O (centres unmarked) [Cytotrienin III, cytotrienin III] | + + | + + + | + + + | + + + | + + + | + + | + + + | + + + | + + + | + + + | 5 ng/mL | 1 ng/mL | > 100 µg/mL | > 100 µg/mL | > 100 µg/mL | 12.5 µg/mL (≈ 19.3 µM) | > 100 µg/mL | > 100 µg/mL | –
COC1C=CC=CC=CCC(OC(=O)C2(NC(=O)C3CCCCC3)CC2)C(C)C(O)C(C)=CCCC2=CC(=O)C=C(NC(=O)C1)C2=O (centres unmarked) [Cytotrienin IV, cytotrienin IV] | + + | – | + + + | + + + | + + + | + + | + + + | + + + | + + + | + + + | 1 ng/mL | 1 ng/mL | > 100 µg/mL | > 100 µg/mL | > 100 µg/mL | 12.5 µg/mL (≈ 19.3 µM) | > 100 µg/mL | > 100 µg/mL | –
COC1C=CC=CC=CCC(OC(=O)C2(NC(=O)C3CCCCC3)CC2)C(C)C(O)C(C)=CCCc2cc(O)cc(c2O)NC(=O)C1 (centres unmarked) [Cytotrienin II, cytotrienin II] | + | + | + + + | + + + | + + + | + | + + | + + + | + + + | + + + | 5 ng/mL | 5 ng/mL | > 100 µg/mL | > 100 µg/mL | > 100 µg/mL | 12.5 µg/mL (≈ 19.2 µM) | > 100 µg/mL | > 100 µg/mL | –
